The numbers were not newly measured in PubChem BioAssay AID1259410 (Chemical Carcinogenesis Research Information System (CCRIS), 2018), which cites them from elsewhere.

The series relates to rodent tumor promotion studies, tumor incidence. Kind of series: CCRIS tumor promotion studies.

`Oc1ccccc1-c1ccccc1`: the outcome (Carcinogen: 7,12-DIMETHYLBENZ[A]ANTHRACENE, 57-97-6, Doses [Carcinogen]: 10 UG 2/WK FOR 5 WK, Doses [Promoter]: 0, 5 MG 2/WK FOR 47 WK BEGINNING 1 WK AFTER LAST CARCINOGEN DOSE (STUDY DURATION: 53 WK), Route [Carcinogen]: DERMAL, Route [Promoter]: DERMAL, Species: MOUSE, Strain/Sex: CD-1/FEMALE) was “skin: papilloma, carcinoma”; the outcome (Carcinogen: N-BUTYL-N-4(HYDROXYBUTYL)NITROSAMINE, 3817-11-6, Doses [Carcinogen]: 0.05% IN DRINKING WATER FOR 2 WK, Doses [Promoter]: 0, 2% IN DIET STARTING POST CARCINOGEN AND CONTINUING FOR 22 WK, LEFT URETER LIGATED 8 D POST CARCINOGEN (STUDY DURATION, Route [Carcinogen]: ORAL, Route [Promoter]: ORAL, Species: RAT, Strain/Sex: F344/MALE) was “bladder: papilloma”; the outcome (Carcinogen: N-BUTYL-N-(4-HYDROXYBUTYL)NITROSAMINE, Doses [Carcinogen]: 0.05% IN DRINKING WATER FOR 4 WK, Doses [Promoter]: 2.0% IN DIET FOR 32 WK AFTER INITIATION, Route [Carcinogen]: ORAL, Route [Promoter]: ORAL, Species: RAT, Strain/Sex: F344/MALE) is listed as “urinary bladder: transitional cell carcinoma”.
